Experiments:
Test in all cases: Thymidylate Synthase (TS) Assay
Conditions in all cases: pH 7.4; 20 °C
Thymidylate synthase [1] = target: T1, Thymidylate synthase (Lacticaseibacillus casei, UniProt P00469)
T1 sequence (P00469 whole entry): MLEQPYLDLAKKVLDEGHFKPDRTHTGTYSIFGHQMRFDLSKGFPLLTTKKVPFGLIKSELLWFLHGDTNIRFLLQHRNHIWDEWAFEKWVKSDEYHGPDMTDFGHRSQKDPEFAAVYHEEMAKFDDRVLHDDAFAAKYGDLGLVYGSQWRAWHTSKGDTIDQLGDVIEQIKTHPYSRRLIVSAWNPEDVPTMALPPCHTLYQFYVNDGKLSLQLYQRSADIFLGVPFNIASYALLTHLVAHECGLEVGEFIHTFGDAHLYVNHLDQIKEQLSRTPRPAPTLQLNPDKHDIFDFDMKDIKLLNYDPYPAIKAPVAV
Experimental: (§1) TS was assayed spectrophotometrically in the reaction buffer solution containing (6R, 6S)-5, 10-CH2H4folate. The reaction was initiated by the addition of an amount of enzyme yielding a change in absorbance at 340 nm of 0.016/min in the absence of inhibitor. Ki values were obtained from the linear least-squares fit of the residual activity as a function of inhibitor concentration, using suitable equations for competitive inhibition.

Thymidylate synthase [2] = target: Thymidylate synthase (Homo sapiens, UniProt P04818)
Chain of Thymidylate synthase (Homo sapiens, UniProt P04818) (P04818 whole entry): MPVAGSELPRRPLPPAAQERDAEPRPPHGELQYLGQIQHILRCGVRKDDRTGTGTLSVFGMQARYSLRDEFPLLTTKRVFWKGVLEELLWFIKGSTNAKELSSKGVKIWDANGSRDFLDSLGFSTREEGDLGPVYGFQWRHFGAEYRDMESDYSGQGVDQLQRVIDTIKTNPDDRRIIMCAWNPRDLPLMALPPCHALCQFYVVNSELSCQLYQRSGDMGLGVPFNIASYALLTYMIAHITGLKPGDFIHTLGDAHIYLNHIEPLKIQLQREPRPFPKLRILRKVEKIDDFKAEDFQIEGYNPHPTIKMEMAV
Experimental: as §1

Thymidylate synthase [3] = target: Thymidylate synthase (Escherichia coli (strain K12), UniProt P0A884)
Chain of Thymidylate synthase (Escherichia coli (strain K12), UniProt P0A884) (P0A884 whole entry): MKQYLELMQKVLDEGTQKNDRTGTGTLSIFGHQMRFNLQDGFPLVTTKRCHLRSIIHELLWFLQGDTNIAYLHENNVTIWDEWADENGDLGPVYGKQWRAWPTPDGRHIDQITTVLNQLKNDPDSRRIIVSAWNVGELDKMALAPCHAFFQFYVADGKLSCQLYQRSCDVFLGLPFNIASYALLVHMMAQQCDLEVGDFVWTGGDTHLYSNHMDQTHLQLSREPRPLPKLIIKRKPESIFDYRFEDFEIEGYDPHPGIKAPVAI
Experimental: as §1

Thymidylate synthase [4] = target: T2, Thymidylate synthase (Pneumocystis carinii, UniProt P13100)
T2 sequence (P13100 whole entry): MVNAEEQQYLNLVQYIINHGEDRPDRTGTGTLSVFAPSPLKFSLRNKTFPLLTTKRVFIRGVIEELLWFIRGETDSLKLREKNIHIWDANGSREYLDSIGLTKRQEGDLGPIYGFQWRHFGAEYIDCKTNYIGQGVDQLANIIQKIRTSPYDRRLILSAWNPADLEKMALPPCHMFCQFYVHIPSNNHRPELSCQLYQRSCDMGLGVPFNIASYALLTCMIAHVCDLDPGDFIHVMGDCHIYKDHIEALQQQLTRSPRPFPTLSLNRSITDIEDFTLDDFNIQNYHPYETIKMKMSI
Experimental: as §1

Thymidylate synthase [5] = target: T3, Thymidylate synthase (Cryptococcus neoformans var. neoformans serotype D (strain B-3501A), UniProt P0CS13)
T3 sequence (P0CS13 whole entry): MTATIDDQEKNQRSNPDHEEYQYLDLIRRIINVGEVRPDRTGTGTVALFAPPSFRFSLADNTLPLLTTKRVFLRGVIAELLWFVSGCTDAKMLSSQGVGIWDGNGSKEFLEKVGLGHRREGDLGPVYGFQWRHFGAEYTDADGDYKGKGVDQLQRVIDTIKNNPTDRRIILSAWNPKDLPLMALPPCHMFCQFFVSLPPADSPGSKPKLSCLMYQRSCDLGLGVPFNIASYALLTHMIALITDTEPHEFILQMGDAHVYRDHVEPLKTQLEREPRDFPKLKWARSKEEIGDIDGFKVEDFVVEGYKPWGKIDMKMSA
Experimental: as §1

Ki (Thymidylate synthase [1]): 0.8 µM | Ki (Thymidylate synthase [2]): > 245 µM | Ki (Thymidylate synthase [3]): 4.1 µM | Ki (Thymidylate synthase [4]): 28 µM | Ki (Thymidylate synthase [5]): 4.1 µM
Compound: O=C1OC(c2ccc(O)c(Br)c2)(c2ccc(O)c(Br)c2)c2cccc3c(Cl)ccc1c23 [4,4-bis(3-bromo-4-hydroxyphenyl)-10-chloro-3-oxatricyclo[7.3.1.0^{5,13}]trideca-1(12),5(13),6,8,10-pentaen-2-one]

Source: BindingDB's records for doi:10.1107/S0907444905022638 (University of California San Francisco, 2005)
